Laboratory results from ChEMBL document CHEMBL5038625, “Application of the dual-tail approach for the design and synthesis of novel Thiopyrimidine-Benzenesulfonamide hybrids as selective carbonic anhydrase inhibitors” (Eur J Med Chem, 2022).

Test system: SF-268
Assay: Antiproliferative activity against human SF-268 cells assessed as cell growth inhibition at 10 uM incubated for 24 hrs by sulforhodamine B assay
Type: functional
Conditions: read-out: GI

Compound COc1ccc(OC)c(-c2nc(SCC(=O)c3ccc(Br)cc3)nc(Nc3ccc(S(N)(=O)=O)cc3)c2C#N)c1 has an inhibition of growth at 10 µM of 43.3%.
